Earlier results in patent US12673067B2, “Methods, agents, and devices for local neuromodulation of autonomic nerves” (Tulavi Therapeutics, Inc., priority 2016, dated 2026).

Experiments:
GPR120 = target: T1, GPR120 (Homo sapiens, UniProt Q5NUL3)
T1 sequence (Q5NUL3 1-361): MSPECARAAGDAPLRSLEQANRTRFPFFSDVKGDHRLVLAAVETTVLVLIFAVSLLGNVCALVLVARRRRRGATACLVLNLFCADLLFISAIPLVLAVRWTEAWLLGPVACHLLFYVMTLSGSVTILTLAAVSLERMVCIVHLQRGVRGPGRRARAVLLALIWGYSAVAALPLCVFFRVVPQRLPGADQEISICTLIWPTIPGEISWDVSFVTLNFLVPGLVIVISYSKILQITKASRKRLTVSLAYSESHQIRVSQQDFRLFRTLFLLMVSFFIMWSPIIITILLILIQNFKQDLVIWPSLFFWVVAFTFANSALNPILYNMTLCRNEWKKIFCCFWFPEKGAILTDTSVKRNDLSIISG

GPR40 = GPR40 (Homo sapiens, UniProt O14842); details: at 100 μM
Sequence of GPR40 (O14842 whole entry): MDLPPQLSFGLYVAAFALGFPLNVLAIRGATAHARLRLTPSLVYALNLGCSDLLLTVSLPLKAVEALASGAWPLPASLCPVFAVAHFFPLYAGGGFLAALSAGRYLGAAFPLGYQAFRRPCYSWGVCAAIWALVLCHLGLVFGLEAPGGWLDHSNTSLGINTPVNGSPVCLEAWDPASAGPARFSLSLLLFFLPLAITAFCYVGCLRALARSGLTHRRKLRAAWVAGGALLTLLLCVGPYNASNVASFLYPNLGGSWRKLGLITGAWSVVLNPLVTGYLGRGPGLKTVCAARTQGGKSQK

GPR120 agonism (GPR120): Weak GPR120 partial agonist
GPR40 activity (GPR40): without GPR40 activity
SMILES: CC(C)=CCC/C(C)=C/CC/C(C)=C/Cc1c(O)cc(C)c(C(=O)O)c1O [Grifolic acid]
